In ChEMBL document CHEMBL2375312, “Novel and highly potent histamine H3 receptor ligands. Part 3: an alcohol function to improve the pharmacokinetic profile” (Bioorg Med Chem Lett, 2013):
One block for each molecule: values may come before it.

Columns and labels:
[1] = Cmax in Swiss mouse brain; assay type: ADME, tissue-based
[2] = Half life in Swiss mouse brain; assay type: ADME, tissue-based
[3] = Tmax in Swiss mouse brain; assay type: ADME, tissue-based
[4] = AUC in Swiss mouse plasma; assay type: ADME
Mus musculus [5] = assay: Inverse agonist activity at histamine H3 receptor in po dosed Swiss mouse assessed as release of N-tele-methylhistamine in brain after 90 mins by enzyme-immunoassay; assay type: functional; conditions: 1.5 h
[6] = Half life in Swiss mouse plasma; assay type: ADME
[7] = Cmax in Swiss mouse plasma; assay type: ADME
[8] = Tmax in Swiss mouse plasma; assay type: ADME
[9] = AUC in Swiss mouse brain; assay type: ADME, organism-based
[10] = Half life of the compound; assay type: physicochemical
Histamine H3 receptor [11] = biological target: Histamine H3 receptor (Homo sapiens, UniProt Q9Y5N1); assay: Displacement of [125I]-iodoproxyfan from human recombinant histamine H3 receptor expressed in HEK293 cells after 1 hr by gamma counting analysis; assay type: cell-based
Histamine H3 receptor [12] = biological target: Histamine H3 receptor (Mus musculus, UniProt P58406); assay: Displacement of [125I]-iodoproxyfan from histamine H3 receptor in mouse brain cortex after 1 hr by gamma counting analysis; assay type: tissue-based
[13] = biological target: Voltage-gated inwardly rectifying potassium channel KCNH2 (Homo sapiens, UniProt Q12809); assay: Binding affinity to human ERG
Cytochrome P450 2D6 = Cytochrome P450 2D6 (Homo sapiens, UniProt P10635); assay: Inhibition of human recombinant CYP2D6; assay type: ADME
[14] = AUC (0 to 8 hrs) in Swiss mouse brain at 10 mg/kg, po by […] analysis; assay type: ADME, organism-based; design: time < 8 hr, dose 10 mg/kg, route oral
Mus musculus [15] = assay: Inverse agonist activity at histamine H3 receptor in po dosed Swiss mouse assessed as release of N-tele-methylhistamine in brain after 90 mins by enzyme-immunoassay relative to ciproxifan; assay type: functional
Cytochrome P450 3A4 = Cytochrome P450 3A4 (Homo sapiens, UniProt P08684); assay: Inhibition of human recombinant CYP3A4; assay type: ADME
[16] = AUC (0 to 8 hrs) in Swiss mouse plasma at 10 mg/kg, po by […] analysis; assay type: ADME, organism-based; design: time < 8 hr, dose 10 mg/kg, route oral
Cytochrome P450 2C9 = Cytochrome P450 2C9 (Homo sapiens, UniProt P11712); assay: Inhibition of human recombinant CYP2C9; assay type: ADME
Sequence of Cytochrome P450 2C9 (P11712 whole entry): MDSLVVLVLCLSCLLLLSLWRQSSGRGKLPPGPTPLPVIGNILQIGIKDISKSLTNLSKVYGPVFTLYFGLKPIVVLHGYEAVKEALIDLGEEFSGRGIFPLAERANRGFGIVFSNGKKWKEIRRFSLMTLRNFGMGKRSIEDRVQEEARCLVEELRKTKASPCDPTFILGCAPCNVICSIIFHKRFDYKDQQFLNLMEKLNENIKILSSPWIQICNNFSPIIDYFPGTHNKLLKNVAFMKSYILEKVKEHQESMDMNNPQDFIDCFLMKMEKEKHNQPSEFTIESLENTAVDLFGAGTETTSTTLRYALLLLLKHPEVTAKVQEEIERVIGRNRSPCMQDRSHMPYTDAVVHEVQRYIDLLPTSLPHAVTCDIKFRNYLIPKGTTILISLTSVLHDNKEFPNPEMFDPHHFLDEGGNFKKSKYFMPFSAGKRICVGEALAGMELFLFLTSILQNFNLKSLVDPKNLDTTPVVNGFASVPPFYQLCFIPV

Sequence of Histamine H3 receptor (Homo sapiens, UniProt Q9Y5N1) (Q9Y5N1 whole entry): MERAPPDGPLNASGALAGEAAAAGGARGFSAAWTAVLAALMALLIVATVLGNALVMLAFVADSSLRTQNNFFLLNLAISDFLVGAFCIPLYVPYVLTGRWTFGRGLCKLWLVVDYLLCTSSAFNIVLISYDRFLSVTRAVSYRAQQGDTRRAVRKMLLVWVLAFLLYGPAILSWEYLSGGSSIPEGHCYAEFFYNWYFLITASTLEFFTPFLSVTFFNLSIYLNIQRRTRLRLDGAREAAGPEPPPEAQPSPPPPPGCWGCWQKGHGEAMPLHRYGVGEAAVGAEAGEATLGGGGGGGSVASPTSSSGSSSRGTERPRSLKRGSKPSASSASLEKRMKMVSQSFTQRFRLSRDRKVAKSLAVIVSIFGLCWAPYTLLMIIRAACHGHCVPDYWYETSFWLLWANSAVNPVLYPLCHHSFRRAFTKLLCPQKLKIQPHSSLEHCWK
Sequence of Histamine H3 receptor (Mus musculus, UniProt P58406) (P58406 whole entry): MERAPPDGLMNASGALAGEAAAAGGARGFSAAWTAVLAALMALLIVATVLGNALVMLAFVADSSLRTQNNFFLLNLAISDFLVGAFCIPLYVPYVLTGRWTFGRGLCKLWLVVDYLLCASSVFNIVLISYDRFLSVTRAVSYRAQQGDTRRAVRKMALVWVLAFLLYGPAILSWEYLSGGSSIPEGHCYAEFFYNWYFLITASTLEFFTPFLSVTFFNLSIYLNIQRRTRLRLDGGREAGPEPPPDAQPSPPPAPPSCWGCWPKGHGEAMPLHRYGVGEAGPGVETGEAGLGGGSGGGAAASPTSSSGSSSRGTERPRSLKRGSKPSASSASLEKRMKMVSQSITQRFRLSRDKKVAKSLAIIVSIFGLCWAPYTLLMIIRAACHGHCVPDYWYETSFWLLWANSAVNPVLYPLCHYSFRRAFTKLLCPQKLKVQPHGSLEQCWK
Sequence of Voltage-gated inwardly rectifying potassium channel KCNH2 (Q12809 whole entry): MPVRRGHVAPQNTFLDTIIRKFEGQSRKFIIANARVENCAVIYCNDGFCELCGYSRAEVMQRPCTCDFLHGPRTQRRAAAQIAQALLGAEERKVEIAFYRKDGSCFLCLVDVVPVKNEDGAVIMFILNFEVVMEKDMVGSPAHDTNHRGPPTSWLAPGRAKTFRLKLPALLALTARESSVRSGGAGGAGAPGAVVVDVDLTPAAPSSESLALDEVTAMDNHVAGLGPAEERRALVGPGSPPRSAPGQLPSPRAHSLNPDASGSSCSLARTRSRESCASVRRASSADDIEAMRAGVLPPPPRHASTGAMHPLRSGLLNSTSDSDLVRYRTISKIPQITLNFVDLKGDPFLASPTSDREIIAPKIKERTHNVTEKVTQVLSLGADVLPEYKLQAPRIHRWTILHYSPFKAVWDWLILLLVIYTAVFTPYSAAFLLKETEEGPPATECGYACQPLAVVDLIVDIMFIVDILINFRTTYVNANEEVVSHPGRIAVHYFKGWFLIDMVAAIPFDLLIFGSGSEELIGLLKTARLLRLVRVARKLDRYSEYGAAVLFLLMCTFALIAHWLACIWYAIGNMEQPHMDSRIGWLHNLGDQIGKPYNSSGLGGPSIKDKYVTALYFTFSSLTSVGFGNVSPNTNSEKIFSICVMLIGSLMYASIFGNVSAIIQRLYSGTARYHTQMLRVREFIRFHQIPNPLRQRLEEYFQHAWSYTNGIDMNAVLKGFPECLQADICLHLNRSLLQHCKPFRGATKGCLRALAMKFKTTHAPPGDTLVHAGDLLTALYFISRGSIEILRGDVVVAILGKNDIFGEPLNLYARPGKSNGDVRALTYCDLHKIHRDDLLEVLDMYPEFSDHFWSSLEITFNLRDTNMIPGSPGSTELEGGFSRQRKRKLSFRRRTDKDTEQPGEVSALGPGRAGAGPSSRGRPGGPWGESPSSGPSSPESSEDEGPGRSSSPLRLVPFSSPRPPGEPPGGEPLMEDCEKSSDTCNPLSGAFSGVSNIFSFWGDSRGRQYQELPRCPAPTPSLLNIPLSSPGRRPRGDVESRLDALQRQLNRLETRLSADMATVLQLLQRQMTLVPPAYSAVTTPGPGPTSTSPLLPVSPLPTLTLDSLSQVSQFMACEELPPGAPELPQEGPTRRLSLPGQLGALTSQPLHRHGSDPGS
Sequence of Cytochrome P450 3A4 (P08684 whole entry): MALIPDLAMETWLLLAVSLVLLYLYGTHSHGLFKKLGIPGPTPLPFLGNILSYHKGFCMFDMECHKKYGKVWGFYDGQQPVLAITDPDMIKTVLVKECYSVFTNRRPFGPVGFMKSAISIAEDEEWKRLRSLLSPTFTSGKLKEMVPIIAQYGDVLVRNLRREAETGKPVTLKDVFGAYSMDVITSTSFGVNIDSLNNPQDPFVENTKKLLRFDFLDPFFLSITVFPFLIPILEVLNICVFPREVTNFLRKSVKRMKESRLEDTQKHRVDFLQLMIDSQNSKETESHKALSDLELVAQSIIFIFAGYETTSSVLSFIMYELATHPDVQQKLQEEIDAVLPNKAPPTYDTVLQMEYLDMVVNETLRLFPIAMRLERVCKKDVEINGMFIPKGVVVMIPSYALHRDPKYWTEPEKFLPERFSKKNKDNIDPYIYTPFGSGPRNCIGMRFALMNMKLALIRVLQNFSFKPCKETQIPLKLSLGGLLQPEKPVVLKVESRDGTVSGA
Sequence of Cytochrome P450 2D6 (P10635 whole entry): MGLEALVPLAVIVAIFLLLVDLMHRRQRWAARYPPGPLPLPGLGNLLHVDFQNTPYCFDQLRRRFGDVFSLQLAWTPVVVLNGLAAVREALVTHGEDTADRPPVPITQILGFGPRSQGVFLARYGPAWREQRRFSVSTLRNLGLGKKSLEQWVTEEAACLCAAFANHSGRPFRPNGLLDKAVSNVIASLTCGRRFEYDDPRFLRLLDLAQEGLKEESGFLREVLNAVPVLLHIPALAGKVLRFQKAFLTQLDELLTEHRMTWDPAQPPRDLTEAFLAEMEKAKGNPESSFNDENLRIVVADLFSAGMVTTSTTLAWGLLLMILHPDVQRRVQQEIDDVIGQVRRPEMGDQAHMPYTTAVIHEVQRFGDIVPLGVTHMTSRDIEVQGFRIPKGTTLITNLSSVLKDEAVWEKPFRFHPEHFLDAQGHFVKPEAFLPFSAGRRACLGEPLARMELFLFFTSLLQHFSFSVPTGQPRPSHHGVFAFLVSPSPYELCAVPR

Cmax [1]: 2380 ng/mL
half-life [2]: > 10 h
Tmax [3]: 1.5 h
AUC [4]: 2110 ng·h/mL
half-life [6]: 5 h
Cmax [7]: 357 ng/mL
Tmax [8]: 1.5 h
AUC [9]: 15600 ng·h/mL
SMILES: c1cc([C@H]2CC[C@H](N3CCOCC3)CC2)ccc1OCCCN1CCCCC1
ED50 (Mus musculus [5]): 1.3 mg/kg

half-life [10]: 50 h
SMILES: COCCCS(=O)(=O)c1ccc(-c2ccc(CCN3CCC[C@H]3C)cc2)cc1

Ki (Histamine H3 receptor [11]): 4.1 nM
SMILES: OC1(c2ccc(OCCCN3CCCCC3)cc2)CCOCC1

Ki (Histamine H3 receptor [11]): 2.9 nM
SMILES: OC(c1ccc(OCCCN2CCCCC2)cc1)C1CCCCC1 (stereo unspecified)

Ki (Histamine H3 receptor [11]): 13 nM
SMILES: OC(c1ccc(OCCCN2CCCCC2)cc1)C1CCOCC1 (stereo unspecified)

Ki (Histamine H3 receptor [11]): 32 nM
SMILES: OCCc1ccc(OCCCN2CCCCC2)cc1

Ki (Histamine H3 receptor [11]): 3.3 nM
SMILES: CC(O)CCc1ccc(OCCCN2CCCCC2)cc1 (stereo unspecified)

Ki (Histamine H3 receptor [11]): 4 nM
SMILES: CC(C)(O)CCc1ccc(OCCCN2CCCCC2)cc1

Ki (Histamine H3 receptor [11]): 15 nM
SMILES: OCC#Cc1ccc(OCCCN2CCCCC2)cc1

Ki (Histamine H3 receptor [11]): 19 nM
SMILES: OCCC#Cc1ccc(OCCCN2CCCCC2)cc1

Ki (Histamine H3 receptor [11]): 2.6 nM
Ki (Histamine H3 receptor [12]): 6.9 nM
IC50 (Cytochrome P450 2D6): > 100000 nM
AUC(0-t) at 8 h [14]: 18000 ng·h/mL
IC50 (Cytochrome P450 3A4): 30300 nM
AUC(0-t) at 8 h [16]: 4980 ng·h/mL
IC50 (Cytochrome P450 2C9): 40300 nM
SMILES: O[C@H]1CC[C@H](c2ccc(OCCCN3CCCCC3)cc2)CC1
Ki [13]: 5800 nM
Ratio (Mus musculus [15]): 1
ED50 (Mus musculus [5]): 0.3 mg/kg

Ki (Histamine H3 receptor [11]): 1.9 nM
Ki (Histamine H3 receptor [12]): 6.3 nM
SMILES: OC1CCC(Cc2ccc(OCCCN3CCCCC3)cc2)CC1 (stereo unspecified)

Ki (Histamine H3 receptor [11]): 22.7 nM
SMILES: OCc1ccc(OCCCN2CCCCC2)cc1

Ki (Histamine H3 receptor [11]): 6.8 nM
SMILES: CC(C)(O)c1ccc(OCCCN2CCCCC2)cc1

Ki (Histamine H3 receptor [11]): 8.6 nM
Ki (Histamine H3 receptor [12]): 18 nM
SMILES: C=CC(O)c1ccc(OCCCN2CCCCC2)cc1 (stereo unspecified)

Ki (Histamine H3 receptor [11]): 6.9 nM
SMILES: C=CCC(O)c1ccc(OCCCN2CCCCC2)cc1 (stereo unspecified)

Ki (Histamine H3 receptor [11]): 1.4 nM
Ki (Histamine H3 receptor [12]): 14 nM
SMILES: CCC(O)(CC)c1ccc(OCCCN2CCCCC2)cc1

Ki (Histamine H3 receptor [12]): 2.5 nM
SMILES: CCCC(O)(CCC)c1ccc(OCCCN2CCCCC2)cc1

Ki (Histamine H3 receptor [11]): 0.54 nM
Ki (Histamine H3 receptor [12]): 4.3 nM
SMILES: C=CCC(O)(CC=C)c1ccc(OCCCN2CCCCC2)cc1

Ki (Histamine H3 receptor [11]): 18 nM
SMILES: OC1(c2ccc(OCCCN3CCCCC3)cc2)CCC1

Ki (Histamine H3 receptor [12]): 7.6 nM
SMILES: OC1(c2ccc(OCCCN3CCCCC3)cc2)CCCC1

Ki (Histamine H3 receptor [11]): 3.9 nM
SMILES: OC1(c2ccc(OCCCN3CCCCC3)cc2)CCCCC1

Cmax [1]: 215 ng/mL
half-life [2]: > 10 h
Tmax [3]: 3 h
AUC [4]: 1520 ng·h/mL
half-life [6]: 6 h
Cmax [7]: 399 ng/mL
Tmax [8]: 1.5 h
AUC [9]: 1520 ng·h/mL
SMILES: OC1CCN([C@H]2CC[C@H](c3ccc(OCCCN4CCCCC4)cc3)CC2)CC1 (mixture of isomers)
